{
  "source": "patent US20250090498A1",
  "about": "“TREATMENT OF PRIMARY CTLA-4 CHECKPOINT RELATED IMMUNODEFICIENCIES” (ADIENNE PHARMA & BIOTECH SA, priority 2023, published 2025)",
  "key": {"[1]": {"tested_on": "immune-mediated colitis", "test": "immune-mediated colitis in NSG mice infused with hPBMCs and treated with anti-CTLA-4 mAb", "format": "in vivo", "description": "Humanized immunodeficient NSG mice were injected with human peripheral blood mononuclear cells from healthy donors and treated with anti-CTLA-4 monoclonal antibody. NOD.Cg-Prkdcscid Il2rgtm1Wjl/SzJ (NSG) mice, 8-10 weeks old, were injected intraperitoneally with human peripheral blood mononuclear cells (107) freshly isolated from healthy donors and treated intraperitoneally with 100 μg of anti-CTLA-4 mAb or human IgG as antibody control at days 0, 4, 8, 12 and 16.\n3-IAld (18 mg/kg) was administered intragastrically every other day starting the day of cell infusion. Mice were monitored daily for overall mortality and body weight loss and sacrificed on day 21."}, "[2]": {"tested_on": "DSS+anti-CTLA-4-induced colitis", "test": "DSS+anti-CTLA-4-induced colitis in C57BL/6 mice", "format": "in vivo", "settings": "for efficacy dose: intragastrically every other day, Eudragit formulations; for lymphocytic infiltration, dose dependence: 0.09-0.045-0.022 mg/mouse (4.5, 2.25 and 1.12 mg/kg), lung, spleen, liver, kidney", "description": "In trials, C57BL/6 mice received dextran sulfate sodium (DSS) (3%) in their drinking water and 100 μg anti-CTLA-4 monoclonal antibody (mAb) or isotype control antibody intraperitoneally, at days 0, 4 and 8 following the DSS administration as indicated in FIG. 2A. DSS is a water soluble, negatively charged sulfated polysaccharide with a highly variable molecular weight ranging from 5 to 1400 kDa. […] Eudragit-formulated 3-IAld (Puccetti et al, 2018) was given at 18 mg/kg 3-IAld intragastrically every other day, as illustrated in FIG. 2A. Animals were monitored daily for appearance of diarrhea, fecal blood, loss of body weight and survival. A week after DSS treatment (14 days after initiation of treatment), at the time at which the model recapitulates the human disease (Manicassamy et al, 2014), surviving mice were sacrificed, and the colon was excised and evaluated for macroscopic damage and local immune parameters.\nIn trials, C57BL/6 mice received dextran sulfate sodium (DSS) (3%) in their drinking water and 100 μg anti-CTLA-4 monoclonal antibody (mAb) or isotype control antibody intraperitoneally, at days 0, 4 and 8 following the DSS administration as indicated in FIG. 17A. Eudragit-formulated 1-methylindole-3-carboxylic acid was given intragastrically every other day, at scaling doses of 0.09, 0.18, or 0.36 mg/mouse (FIG. 17A). Animals were monitored daily for the appearance of diarrhea, fecal blood and loss of body weight. A week after DSS treatment (14 days after initiation of treatment), at the time at which the murine model recapitulates the human disease (Manicassamy et al, 2014), surviving mice were sacrificed and the colon was excised and evaluated for macroscopic damage and local immune parameters. […] CTLA-4 haploinsufficiency typically presents with extensive CD3+T cell infiltration across different organs (Kuehn et al, 2014—Schubert et al, 2014—Schwab et al, 2018).\nIn the DSS+anti-CTLA-4-induced colitis, mice were treated intragastrically (Eudragit formulations) every other day starting 4 days before DSS treatment and continuing until mice sacrifice. Mice were evaluated for disease activity in terms of histopathology, parameters of barrier permeability function and intestinal inflammation.\nAssessment of scaling doses of 0.09-0.045-0.022 mg/mouse (corresponding to 4.5, 2.25 and 1.12 mg/kg) in the murine model of immune-mediated colitis (DSS+anti-CTLA-4) was performed as shown in Table 2 below.\nC57BL/6 mice were treated with DSS in drinking water for 1 week followed by a recovery period of another week and administered […] of anti-CTLA-4 mAb and 1ME3CA as depicted in the experimental schedule in FIG. 23A. Mice were evaluated for weight change (FIG. 23B), disease activity index (FIG. 23C), clinical morbidity and rectal bleeding (FIG. 23D), colon and ileum histology (FIG. 23E) (PAS staining), ×40 magnification (scale bars, 100 m). Each in vivo experiment includes four to six mice per group (20 mice in each experiment).\nPhotographs were taken with a high-resolution microscope, lung and spleen ×10 magnification (scale bars, 400 m) and liver and kidney ×20 magnification (scale bars, 200 m)."}, "[3]": {"test": "preliminary pharmacokinetics in serum after Eudragit-formulated 3-IAld (90% 3-IAld/10% 13C8-labeled 3-IAld), mass spectrometry", "format": "in vivo", "description": "Primary pharmacodynamics studies have been performed. The mode of action of 3-IAld occurs upon binding to AhR, both in vitro and in vivo. In vitro, 3-IAld induced luciferase activity in the H1L1.1c2 cell line containing a stably-transfected AhR-responsive firefly luciferase at the dose range […] (Zelante et al, 2013). […] Preliminary pharmacokinetics data have been obtained by administration of Eudragit-formulated 3-IAld in the composition 90% 3-IAld/10% 13C8-labeled 3-IAld and targeted/untargeted analysis by mass spectrometry in serum at different times (30 minutes (min), 1 hour (h), 2 h, 4.5h, 6 h, 24h). […] The presence of indole-3-formic acid was also confirmed with labelled 3-IAld (FIG. 13E), showing a similar kinetics and a peak level of about 25 μM at 30 min."}, "[4]": {"test": "in vivo", "settings": "C57BL/6, mouse, 18 mg/kg", "experimental": "A single-dose pharmacokinetic (PK) study was performed on healthy C57BL/6 mice to compare 1ME3CA and 3-IAld at 0.36 mg/topo dose. Untreated naïve mice were used as the control. […] Blood, obtained by cardiac puncture and collected into EDTA-containing tubes, and organs (brain, lung, intestine, liver and kidney) were assessed. All samples were stored at −80° C. until use. To evaluate 1ME3CA and 3-IAld for functional activity, the expression of AhR-downstream genes were concomitantly evaluated in these mice."}, "[5]": {"settings": "3-IAld 18 mg/kg intragastrically every other day, 21 days"}, "[6]": {"settings": "3-IAld 18 mg/kg, colon homogenates"}, "[7]": {"settings": "3-IAld 18 mg/kg, surviving mice, 14 days"}, "[8]": {"settings": "Eudragit-formulated 3-IAld 18 mg/kg intragastrically every other day"}, "[9]": {"settings": "1-methylindole-3-carboxylic acid"}, "[10]": {"settings": "1-methylindole-3-carboxylic acid 0.09, 0.18 or 0.36 mg/mouse every other day"}, "[11]": {"settings": "1-methylindole-3-carboxylic acid 0.09-0.36 mg/mouse"}},
  "note": "“Also recorded” adds a separate entry of the source.",
  "data": [
    {"molecule": "O=Cc1c[nH]c2ccccc12", "note": "[3-IAld, 1H-indole-3-carbaldehyde]", "values": [
      {"measurement": "immune-mediated colitis (overall)", "setting": "[1]; 3-IAld 18 mg/kg", "value": "protects mice from immune-mediated colitis"},
      {"measurement": "survival", "setting": "[1]; [5]", "value": "increased"},
      {"measurement": "weight loss", "setting": "[1]; [5]", "value": "reduced"},
      {"measurement": "histology score", "setting": "[1]; 3-IAld 18 mg/kg, colon, day 21", "value": "improved"},
      {"measurement": "inflammatory histopathology", "setting": "[1]; 3-IAld 18 mg/kg, colon, day 21", "value": "improved"},
      {"measurement": "barrier function (expression of ZO-1)", "setting": "[1]; 3-IAld 18 mg/kg, day 21", "value": "restored"},
      {"measurement": "inflammatory cytokine gene expression", "setting": "[1]; 3-IAld 18 mg/kg, day 21", "value": "decreased"},
      {"measurement": "anti-inflammatory state", "setting": "[2]; 3-IAld 18 mg/kg", "value": "promotes an anti-inflammatory state"},
      {"measurement": "epithelial barrier integrity", "setting": "[2]; 3-IAld 18 mg/kg", "value": "provides epithelial barrier integrity"},
      {"measurement": "expression of IL-22 (gene and protein)", "setting": "[2]; 3-IAld 18 mg/kg", "value": "induced expression"},
      {"measurement": "expression of Lgr5, Nfil3 and Muc1", "setting": "[2]; 3-IAld 18 mg/kg", "value": "promoted the expression"},
      {"measurement": "expression of the AhR-dependent genes Cyp1a1 and Ahrr", "setting": "[2]; 3-IAld 18 mg/kg", "value": "induced expression"},
      {"measurement": "expression of the antimicrobial peptide Reg37", "setting": "[2]; 3-IAld 18 mg/kg", "value": "induced expression"},
      {"measurement": "gut inflammatory pathology (overall)", "setting": "[2]; 3-IAld 18 mg/kg intragastrically every other day", "value": "prevent gut inflammatory pathology; also recorded: protects from inflammatory pathology"},
      {"measurement": "amounts of IL-10", "setting": "[2]; [6]", "value": "increased amounts"},
      {"measurement": "levels of TNF-α, IL-10 and IL-17A", "setting": "[2]; [6]", "value": "reduced levels"},
      {"measurement": "levels of calprotectin", "setting": "[2]; [6]", "value": "reduced"},
      {"measurement": "passage of dextran-FITC across the intestinal barrier", "setting": "[2]; 3-IAld 18 mg/kg, serum", "value": "reduced"},
      {"measurement": "epithelial barrier function (expression of ZO-1)", "setting": "[2]; [7]", "value": "recovery"},
      {"measurement": "epithelial cell proliferation and renewal (Ki-67 staining)", "setting": "[2]; [7]", "value": "recovery"},
      {"measurement": "gross pathology", "setting": "[2]; [7]", "value": "improved"},
      {"measurement": "normal architecture structure of the colon", "setting": "[2]; [7]", "value": "recovery"},
      {"measurement": "body weight", "setting": "[2]; [8]", "value": "increased"},
      {"measurement": "disease activity index", "setting": "[2]; [8]", "value": "decreased"},
      {"measurement": "survival", "setting": "[2]; [8]", "value": "increased"},
      {"measurement": "efficacy dose", "setting": "[2]", "value": 18, "unit": "mg/kg"},
      {"measurement": "labelled 3-IAld serum level at 2 h", "setting": "[3]; in vivo", "value": "sharply reduced levels"},
      {"measurement": "metabolic conversion", "setting": "[3]; in vivo", "value": "rapid metabolic conversion"},
      {"measurement": "time of peak of labelled 3-IAld in serum", "setting": "[3]; in vivo", "value": "30 to 60", "unit": "min"},
      {"measurement": "half-life", "setting": "[4]; po", "value": "3 to 5", "unit": "h"}
    ]},
    {"molecule": "Cn1cc(C(=O)O)c2ccccc21", "note": "[1-methylindole-3-carboxylic acid, 1-Methyl-1H-indole-3-carboxylic acid]", "values": [
      {"measurement": "inflammatory pathology, dose dependence", "setting": "[2]; 0.09-0.045-0.022 mg/mouse", "value": "protects from inflammatory pathology"},
      {"measurement": "lymphocytic infiltration, dose dependence", "setting": "[2]; listed as 1ME3CA", "value": "reduces lymphocytic infiltration in anti-CTLA-4-treated mice in a dose-dependent manner"},
      {"measurement": "lymphocytic infiltration, dose dependence", "setting": "[2]; listed as MECA", "value": "reduces lymphocytic infiltration"},
      {"measurement": "Il1b expression in the colon", "setting": "[2]; [9]", "value": "reduced levels"},
      {"measurement": "Il10 expression in the colon", "setting": "[2]; [9]", "value": "increased levels"},
      {"measurement": "anti-inflammatory state and AhR activation", "setting": "[2]; [9]", "value": "promotes an anti-inflammatory state and AhR activation"},
      {"measurement": "clinical morbidity and rectal bleeding", "setting": "[2]; [10]", "value": "protected"},
      {"measurement": "disease activity index", "setting": "[2]; [10]", "value": "decreased"},
      {"measurement": "CD3+ T cell (lymphocytic) infiltration in the lung", "setting": "[2]; [11]", "value": "effective in reducing; also recorded: reduces lymphocytic infiltration"},
      {"measurement": "CD3+ T cell infiltration in the ileum and colon", "setting": "[2]; [11]", "value": "significantly reduced"},
      {"measurement": "gut inflammatory pathology (overall)", "setting": "[2]; [11]", "value": "prevent gut inflammatory pathology; also recorded: protects from inflammatory pathology"},
      {"measurement": "normal architectural structure of the colon and ileum", "setting": "[2]; [11]", "value": "recovery"},
      {"measurement": "epithelial barrier function (expression of ZO-1)", "setting": "[2]; 1-methylindole-3-carboxylic acid 0.09-0.36 mg/mouse, colon and ileum", "value": "maintenance"},
      {"measurement": "expression of the AhR-dependent genes Cyp1a1, the antimicrobial peptide Reg3g, and 1122", "setting": "[2]; 1-methylindole-3-carboxylic acid, listed as 1-Methylindole-3-Carboxylic Acid", "value": "Potent Activator"},
      {"measurement": "expression of the AhR-dependent genes Cyp1a1, the antimicrobial peptide Reg3g, and 1122", "setting": "[2]; 1-methylindole-3-carboxylic acid, listed as 1-methylindole-3-carboxylic", "value": "induced the expression"},
      {"measurement": "body weight loss", "setting": "[2]; Eudragit-formulated 1-methylindole-3-carboxylic acid 0.09, 0.18 or 0.36 mg/mouse intragastrically every other day", "value": "significant attenuation"},
      {"measurement": "effects at each administered dose", "setting": "[2]; each dose including 0.09 mg/mouse", "value": "Positive effects"},
      {"measurement": "efficacy dose", "setting": "[2]", "value": 2.25, "unit": "mg/kg"},
      {"measurement": "time of peak levels as metabolite of 3-IAld", "setting": "[3]; same kinetics as indole-3-formic acid", "value": 30, "unit": "min"},
      {"measurement": "Tmax", "setting": "[4]; in vivo", "value": 0.5, "unit": "h"}
    ]}
  ]
}
